Assay results published in ChEMBL document CHEMBL5465560, “Selectivity Literature for EUbOPEN Chemogenomic Library” (2024).
pIC50: −log10 of the molar value. One block for each compound: values may come before it.

How the values were obtained:
[1] = molecular target: T1, TGF-beta receptor type-1 (Homo sapiens) (UniProt P36897); conditions: at 10 µM
T1 sequence (whole entry): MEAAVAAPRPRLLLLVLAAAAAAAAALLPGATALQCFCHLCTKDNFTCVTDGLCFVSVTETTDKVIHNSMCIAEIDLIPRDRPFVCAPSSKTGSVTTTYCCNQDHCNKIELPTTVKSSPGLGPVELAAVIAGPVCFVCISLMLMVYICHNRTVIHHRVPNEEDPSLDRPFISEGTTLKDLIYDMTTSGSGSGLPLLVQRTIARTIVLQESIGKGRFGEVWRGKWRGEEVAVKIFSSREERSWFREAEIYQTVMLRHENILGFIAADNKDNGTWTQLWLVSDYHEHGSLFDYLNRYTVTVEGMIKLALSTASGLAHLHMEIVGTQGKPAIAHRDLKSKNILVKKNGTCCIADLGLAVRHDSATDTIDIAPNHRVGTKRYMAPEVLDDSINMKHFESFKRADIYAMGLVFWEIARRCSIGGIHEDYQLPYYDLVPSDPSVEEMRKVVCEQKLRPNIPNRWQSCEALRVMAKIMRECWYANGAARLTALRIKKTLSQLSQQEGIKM

[2] = molecular target: Leucine-rich repeat serine/threonine-protein kinase 2 (Homo sapiens, UniProt Q5S007); conditions: PBMC, at 1 µM
[3] = molecular target: T2, Hormonally up-regulated neu tumor-associated kinase (Homo sapiens) (UniProt P57058); experiment: Selectivity interaction (KinomeScan (DiscoverX)) EUB0000595a HUNK; conditions: at 10 µM
T2 sequence (whole entry): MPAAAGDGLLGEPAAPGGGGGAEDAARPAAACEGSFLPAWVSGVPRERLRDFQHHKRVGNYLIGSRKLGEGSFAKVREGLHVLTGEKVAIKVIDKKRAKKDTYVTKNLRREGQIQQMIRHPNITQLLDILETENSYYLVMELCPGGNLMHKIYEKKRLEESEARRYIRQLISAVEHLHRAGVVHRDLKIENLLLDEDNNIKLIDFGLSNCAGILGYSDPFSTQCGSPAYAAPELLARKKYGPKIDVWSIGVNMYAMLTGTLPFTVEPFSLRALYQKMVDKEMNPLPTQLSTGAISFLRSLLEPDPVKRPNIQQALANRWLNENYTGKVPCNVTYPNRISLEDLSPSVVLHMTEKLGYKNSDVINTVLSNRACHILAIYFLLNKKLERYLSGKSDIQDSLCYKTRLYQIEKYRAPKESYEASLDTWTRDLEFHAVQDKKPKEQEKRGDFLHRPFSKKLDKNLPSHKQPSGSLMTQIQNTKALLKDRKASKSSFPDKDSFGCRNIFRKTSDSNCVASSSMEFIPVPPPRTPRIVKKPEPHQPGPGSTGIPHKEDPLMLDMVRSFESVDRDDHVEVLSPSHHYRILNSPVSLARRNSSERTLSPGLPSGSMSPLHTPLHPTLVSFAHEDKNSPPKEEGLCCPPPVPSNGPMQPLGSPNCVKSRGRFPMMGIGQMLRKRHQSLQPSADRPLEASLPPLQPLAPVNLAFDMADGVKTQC

[4] = molecular target: T3, Dual specificity protein kinase TTK (Homo sapiens) (UniProt P33981); experiment: Selectivity interaction (Kinase panel (Invitrogen)) EUB0000639a TTK; conditions: at 200 nM
T3 sequence (whole entry): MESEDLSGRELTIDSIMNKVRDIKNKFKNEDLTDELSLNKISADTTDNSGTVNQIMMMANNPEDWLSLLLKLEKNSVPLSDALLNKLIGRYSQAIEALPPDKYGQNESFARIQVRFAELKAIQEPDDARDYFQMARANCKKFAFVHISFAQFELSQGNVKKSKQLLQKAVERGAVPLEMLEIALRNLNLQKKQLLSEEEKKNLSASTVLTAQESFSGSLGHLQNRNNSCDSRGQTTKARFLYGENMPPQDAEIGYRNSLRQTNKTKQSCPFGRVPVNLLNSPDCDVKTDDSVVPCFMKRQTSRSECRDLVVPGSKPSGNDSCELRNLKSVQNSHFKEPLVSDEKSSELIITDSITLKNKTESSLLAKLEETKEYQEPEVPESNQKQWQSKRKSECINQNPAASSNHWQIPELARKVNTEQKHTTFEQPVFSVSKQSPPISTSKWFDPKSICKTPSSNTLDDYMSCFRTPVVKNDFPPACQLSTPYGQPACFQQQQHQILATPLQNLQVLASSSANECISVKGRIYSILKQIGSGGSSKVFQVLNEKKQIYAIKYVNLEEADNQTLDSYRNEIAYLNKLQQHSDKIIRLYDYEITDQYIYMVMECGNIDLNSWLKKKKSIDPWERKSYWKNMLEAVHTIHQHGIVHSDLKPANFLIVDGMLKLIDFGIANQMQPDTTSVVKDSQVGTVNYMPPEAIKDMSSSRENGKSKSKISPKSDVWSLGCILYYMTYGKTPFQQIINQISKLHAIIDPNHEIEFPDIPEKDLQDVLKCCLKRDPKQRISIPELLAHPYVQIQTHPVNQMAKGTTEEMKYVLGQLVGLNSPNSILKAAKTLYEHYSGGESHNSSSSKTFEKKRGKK

[5] = molecular target: Rho-associated protein kinase 2 (Homo sapiens, UniProt O75116); experiment: Selectivity interaction (Kinase panel (33PanQinase(R) Activity Assay)) EUB0000877a ROCK2
[6] = molecular target: T4, Serine/threonine-protein kinase 17B (Homo sapiens) (UniProt O94768); experiment: Selectivity interaction (KinomeScan (DiscoverX)) EUB0000092b STK17B; conditions: at 10 µM
T4 sequence (whole entry): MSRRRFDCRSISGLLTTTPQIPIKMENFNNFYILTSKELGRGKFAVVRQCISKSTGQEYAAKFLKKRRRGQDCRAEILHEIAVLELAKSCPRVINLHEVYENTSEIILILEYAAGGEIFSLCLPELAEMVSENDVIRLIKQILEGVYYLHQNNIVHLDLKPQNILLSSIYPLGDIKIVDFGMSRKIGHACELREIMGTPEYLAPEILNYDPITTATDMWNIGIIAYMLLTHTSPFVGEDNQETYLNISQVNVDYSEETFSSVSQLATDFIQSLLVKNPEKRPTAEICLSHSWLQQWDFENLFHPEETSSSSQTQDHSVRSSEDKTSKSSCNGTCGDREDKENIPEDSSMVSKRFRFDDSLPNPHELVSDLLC

[7] = molecular target: Muscarinic acetylcholine receptor M3 (Homo sapiens, UniProt P20309); experiment: Selectivity interaction (GPCR panel (PDSP screen)) EUB0000311b CHRM3; conditions: at 10 µM
[8] = test system: Fibroblast growth factor receptor 1 (Homo sapiens), P11362 [V561M]; experiment: Selectivity interaction (LanthaScreen Eu Kinase Binding Assay) EUB0001632a FGFR1; conditions: at 10 µM
[9] = molecular target: Ribosomal protein S6 kinase alpha-2 (Homo sapiens) (UniProt Q15349); experiment: Selectivity interaction (Kinase panel (Z-LYTE Assay)) EUB0001632a RPS6KA2; conditions: at 10 µM
Sequence of Ribosomal protein S6 kinase alpha-2 (Homo sapiens) (Q15349 whole entry): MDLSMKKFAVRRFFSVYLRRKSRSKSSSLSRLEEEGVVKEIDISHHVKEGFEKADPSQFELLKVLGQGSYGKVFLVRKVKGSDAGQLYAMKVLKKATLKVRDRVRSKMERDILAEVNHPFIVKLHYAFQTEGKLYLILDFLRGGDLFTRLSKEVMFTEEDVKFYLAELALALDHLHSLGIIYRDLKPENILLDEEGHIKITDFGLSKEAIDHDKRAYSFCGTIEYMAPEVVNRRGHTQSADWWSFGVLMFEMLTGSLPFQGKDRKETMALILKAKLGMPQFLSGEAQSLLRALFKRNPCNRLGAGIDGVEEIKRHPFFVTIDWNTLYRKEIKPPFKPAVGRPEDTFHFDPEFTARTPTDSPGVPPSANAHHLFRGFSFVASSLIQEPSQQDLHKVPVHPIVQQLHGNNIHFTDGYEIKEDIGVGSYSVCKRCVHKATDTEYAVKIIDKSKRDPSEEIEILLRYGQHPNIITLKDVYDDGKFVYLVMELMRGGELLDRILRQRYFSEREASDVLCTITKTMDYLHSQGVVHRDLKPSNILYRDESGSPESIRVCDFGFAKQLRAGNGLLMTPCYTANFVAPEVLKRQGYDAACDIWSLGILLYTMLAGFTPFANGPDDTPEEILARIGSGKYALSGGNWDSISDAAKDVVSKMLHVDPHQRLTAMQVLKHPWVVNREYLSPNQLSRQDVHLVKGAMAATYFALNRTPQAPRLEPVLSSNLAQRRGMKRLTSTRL

Sequence of Fibroblast growth factor receptor 1 (Homo sapiens), P11362 [V561M] (P11362 whole entry V561M): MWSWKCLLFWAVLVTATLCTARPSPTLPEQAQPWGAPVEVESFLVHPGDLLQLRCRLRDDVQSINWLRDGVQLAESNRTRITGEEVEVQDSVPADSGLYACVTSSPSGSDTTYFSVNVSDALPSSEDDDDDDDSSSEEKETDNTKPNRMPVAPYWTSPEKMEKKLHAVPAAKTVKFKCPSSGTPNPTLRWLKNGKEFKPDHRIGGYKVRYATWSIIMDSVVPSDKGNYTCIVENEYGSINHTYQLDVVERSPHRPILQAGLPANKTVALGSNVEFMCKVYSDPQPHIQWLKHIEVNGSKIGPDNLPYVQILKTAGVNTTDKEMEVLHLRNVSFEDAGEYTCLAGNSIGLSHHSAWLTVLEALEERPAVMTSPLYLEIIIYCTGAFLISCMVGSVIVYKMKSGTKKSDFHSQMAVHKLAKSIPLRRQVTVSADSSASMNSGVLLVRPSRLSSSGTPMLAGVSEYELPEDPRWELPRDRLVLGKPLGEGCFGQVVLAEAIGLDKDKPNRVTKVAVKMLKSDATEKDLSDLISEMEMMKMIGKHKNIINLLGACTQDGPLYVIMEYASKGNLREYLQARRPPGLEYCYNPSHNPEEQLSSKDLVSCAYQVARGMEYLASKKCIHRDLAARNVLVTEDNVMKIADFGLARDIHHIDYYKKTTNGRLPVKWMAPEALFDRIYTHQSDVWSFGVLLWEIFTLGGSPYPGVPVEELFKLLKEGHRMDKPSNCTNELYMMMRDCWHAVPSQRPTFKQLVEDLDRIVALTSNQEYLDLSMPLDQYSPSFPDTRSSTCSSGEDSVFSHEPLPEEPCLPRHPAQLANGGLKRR
Sequence of Muscarinic acetylcholine receptor M3 (P20309 whole entry, looked up): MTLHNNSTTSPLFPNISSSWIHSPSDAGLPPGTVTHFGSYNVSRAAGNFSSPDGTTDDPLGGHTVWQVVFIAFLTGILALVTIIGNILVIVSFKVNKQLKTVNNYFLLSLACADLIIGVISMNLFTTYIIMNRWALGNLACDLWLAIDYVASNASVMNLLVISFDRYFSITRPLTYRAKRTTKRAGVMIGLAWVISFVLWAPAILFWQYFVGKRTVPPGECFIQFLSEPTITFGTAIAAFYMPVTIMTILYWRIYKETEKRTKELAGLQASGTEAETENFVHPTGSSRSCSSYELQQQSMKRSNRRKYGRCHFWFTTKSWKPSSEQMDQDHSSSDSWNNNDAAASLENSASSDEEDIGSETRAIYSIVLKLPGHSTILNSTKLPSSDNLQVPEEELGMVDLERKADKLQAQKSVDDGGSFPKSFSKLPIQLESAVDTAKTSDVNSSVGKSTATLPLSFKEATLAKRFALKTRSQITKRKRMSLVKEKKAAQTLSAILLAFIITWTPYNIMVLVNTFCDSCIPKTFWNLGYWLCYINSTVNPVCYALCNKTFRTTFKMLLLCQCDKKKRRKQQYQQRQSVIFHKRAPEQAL
Sequence of Rho-associated protein kinase 2 (O75116 whole entry): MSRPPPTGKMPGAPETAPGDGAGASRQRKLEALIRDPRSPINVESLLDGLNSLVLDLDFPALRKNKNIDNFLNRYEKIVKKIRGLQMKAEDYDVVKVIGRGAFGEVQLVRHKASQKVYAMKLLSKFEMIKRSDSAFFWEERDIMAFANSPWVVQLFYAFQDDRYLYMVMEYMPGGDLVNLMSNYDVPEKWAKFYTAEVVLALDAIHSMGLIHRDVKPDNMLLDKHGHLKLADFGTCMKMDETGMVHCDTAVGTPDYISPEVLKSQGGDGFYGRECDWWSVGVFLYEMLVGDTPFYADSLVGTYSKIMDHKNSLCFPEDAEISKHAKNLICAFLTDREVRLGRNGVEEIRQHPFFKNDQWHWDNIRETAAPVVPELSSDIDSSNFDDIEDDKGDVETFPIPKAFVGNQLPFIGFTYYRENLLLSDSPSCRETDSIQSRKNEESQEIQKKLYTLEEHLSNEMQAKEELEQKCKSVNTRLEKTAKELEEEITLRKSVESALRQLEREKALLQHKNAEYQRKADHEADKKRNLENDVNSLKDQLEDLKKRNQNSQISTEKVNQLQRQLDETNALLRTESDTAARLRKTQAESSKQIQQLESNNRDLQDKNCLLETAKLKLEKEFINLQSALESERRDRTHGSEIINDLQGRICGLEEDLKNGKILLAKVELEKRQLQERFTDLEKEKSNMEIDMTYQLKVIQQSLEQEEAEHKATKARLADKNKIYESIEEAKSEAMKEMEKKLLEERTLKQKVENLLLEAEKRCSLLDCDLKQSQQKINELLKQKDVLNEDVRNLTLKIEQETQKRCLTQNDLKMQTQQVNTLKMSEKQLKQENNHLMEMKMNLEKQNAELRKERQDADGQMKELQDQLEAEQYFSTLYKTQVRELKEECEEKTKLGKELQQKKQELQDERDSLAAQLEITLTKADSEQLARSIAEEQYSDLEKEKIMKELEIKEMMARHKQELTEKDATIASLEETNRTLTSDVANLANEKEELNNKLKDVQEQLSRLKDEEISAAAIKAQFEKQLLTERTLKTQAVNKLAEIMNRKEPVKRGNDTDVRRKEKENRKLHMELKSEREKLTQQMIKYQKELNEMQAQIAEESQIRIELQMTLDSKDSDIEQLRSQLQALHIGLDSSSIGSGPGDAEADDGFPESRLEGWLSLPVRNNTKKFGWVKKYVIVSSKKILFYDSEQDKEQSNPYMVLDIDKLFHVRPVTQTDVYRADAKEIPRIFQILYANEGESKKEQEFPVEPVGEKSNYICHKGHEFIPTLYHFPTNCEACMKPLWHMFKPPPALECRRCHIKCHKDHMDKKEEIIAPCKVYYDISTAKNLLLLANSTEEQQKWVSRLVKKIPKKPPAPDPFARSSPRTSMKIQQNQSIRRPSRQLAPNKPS

SMILES: N#Cc1cccc(-c2c[nH]c3ncnc(N4CCOCC4)c23)c1
% of inhibition [2]: 94%

SMILES: COCC(=O)NC/C=C/c1ccc2ncnc(Nc3ccc(Oc4ccc(C)nc4)c(C)c3)c2c1 [CP-724714]
% of control [3]: 70%

SMILES: CC[C@@H]1[C@H](F)C(=O)N[C@@H]1COc1nccc2cc(C(N)=O)c(OC)cc12 [ZIMLOVISERTIB]
% of inhibition [4]: 8.59%

SMILES: CCC(=O)N1CCN(c2ccc(-n3c(=O)ccc4cnc5ccc(-c6cnc7ccccc7c6)cc5c43)cc2C(F)(F)F)CC1
% of control [6]: 67%

Continued, values first:

% of control [1]: 100%
SMILES: CCN(CC)CCCCNc1ncc2cc(-c3cc(OC)cc(OC)c3)c(NC(=O)NC(C)(C)C)nc2n1

pIC50 [5]: < 5.00
SMILES: CCC(=O)N1CC[C@H](Nc2ncnc3c2CN(c2cnc(OC)c(C(F)(F)F)c2)CC3)C1 [LENIOLISIB]

% of inhibition [7]: 22.5%
SMILES: CCc1ccccc1C(=O)Nc1n[nH]c2c(C)c(F)c(C3C(C#N)=C(C)N(C)C(C)=C3C#N)cc12 [BAY-3827]

% of inhibition [8]: -8.96%
% of control [9]: 1.22%
SMILES: Cn1cc(-n2cnc3c(NCc4nc5cc(Cl)c(Cl)cc5[nH]4)nc(N4CCOCC4)nc32)cn1
